ChEMBL document CHEMBL6096690, “Synthesis and Biological Evaluation of Peripheral HTR2A Antagonists for Colorectal Cancer” (J Med Chem, 2025)

Target: 5-hydroxytryptamine receptor 2A (Homo sapiens, UniProt P28223)
Experiment: Antagonist activity at 5HTR2A (unknown origin) assessed as inhibition of 5-HTR2A

5-hydroxytryptamine receptor 2A, sequence (P28223 whole entry): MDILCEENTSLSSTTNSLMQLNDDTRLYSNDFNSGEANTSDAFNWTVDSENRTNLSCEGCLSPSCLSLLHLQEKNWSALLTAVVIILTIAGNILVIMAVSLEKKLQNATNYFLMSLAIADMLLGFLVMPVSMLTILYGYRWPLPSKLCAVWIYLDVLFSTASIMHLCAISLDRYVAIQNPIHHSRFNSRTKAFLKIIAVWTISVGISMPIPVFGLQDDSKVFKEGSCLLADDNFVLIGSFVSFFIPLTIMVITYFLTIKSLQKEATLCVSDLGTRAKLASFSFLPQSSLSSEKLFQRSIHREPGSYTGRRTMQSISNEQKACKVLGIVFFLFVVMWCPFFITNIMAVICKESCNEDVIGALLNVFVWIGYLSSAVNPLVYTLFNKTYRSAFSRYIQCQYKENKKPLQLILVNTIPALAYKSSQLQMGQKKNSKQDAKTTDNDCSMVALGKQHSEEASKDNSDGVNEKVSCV

IC50: 667 nM
SMILES: O=C(c1ccc(F)cc1)C1CCN(CC(O)COc2ccc(CNC(=O)N(Cc3ccc(F)cc3)C3CCNCC3)cc2)CC1 (stereo unspecified)
